Assay [1] has as its target T1, C-C chemokine receptor type 4 (Homo sapiens, UniProt P51679).
T1 sequence (P51679 whole entry): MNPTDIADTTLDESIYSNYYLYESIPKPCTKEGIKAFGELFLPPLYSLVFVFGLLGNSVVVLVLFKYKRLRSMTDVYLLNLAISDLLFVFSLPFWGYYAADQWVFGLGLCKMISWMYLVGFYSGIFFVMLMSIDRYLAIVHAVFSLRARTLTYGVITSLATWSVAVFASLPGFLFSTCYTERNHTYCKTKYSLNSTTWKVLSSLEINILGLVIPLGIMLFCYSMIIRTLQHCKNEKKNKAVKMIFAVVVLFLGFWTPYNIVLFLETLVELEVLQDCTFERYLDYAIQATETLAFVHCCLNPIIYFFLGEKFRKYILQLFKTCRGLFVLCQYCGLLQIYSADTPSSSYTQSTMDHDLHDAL
Nature of the assay: Displacement of [125I]TARC from human CCR4 receptor transfected in HEK293 cells. It is filed as cell-based.

Assay [2] has as its system L1.2. The assay can be described thus: Cytotoxicity against CCR4 transfected L1.2 cells (murine pre-B cells). The class given is functional, cell-based. The conditions noted are these: Mus musculus.
For assay [3], the target named is T1, C-C chemokine receptor type 4. Nature of the assay: Calcium mobilization mediated by CCR4 receptor in CEMS529 cells by FLIPR. It is filed as functional, cell-based. On the technique in general: A change in cytosolic calcium serves as a functional read-out for many receptors and channels.
Assay [4] concerns Mus musculus. The assay can be described thus: In vivo efficacy against allergic lung inflammation in BABL/c mice administered sc. The class given is functional.

SMILES strings stand for the structures. pIC50: −log10 of the molar value.

The pIC50 is the negative decadic logarithm of the IC50, by convention in mol/L. What is called ED50 is the midpoint of the dose-response relation. Higher therefore signals weaker potency.

As for `O=C([C@@H]1CCCCN1)N1CCN(c2nccc(NCc3ccc(Cl)cc3Cl)n2)CC1`, in assay [1], the pIC50 was 6.00.

The molecule `CN1CCCC(C(=O)N2CCN(c3ccnc(NCc4ccc(Cl)cc4Cl)n3)CC2)C1` (stereo not drawn) showed a pIC50 in assay [1] of 6.52. The molecule `CN1CCCC(C(=O)N2CCN(c3nccc(NCc4ccc(Cl)cc4Cl)n3)CC2)C1` (stereo not drawn) gave a pIC50 in assay [1] of 6.15. In turn, `O=C(C1CCNCC1)N1CCN(c2nccc(NCc3ccc(Cl)cc3Cl)n2)CC1` had a negative logarithm of the IC50 (pIC50) in assay [1] of under 5.00. Regarding `O=C(C1CCCNC1)N1CCN(c2nccc(NCc3ccc(Cl)cc3Cl)n2)CC1` (stereo not drawn), the pIC50 in assay [1] was 6.10. Same read-out and setting: the same measure for `CN1CCCC(C(=O)NCCCNc2nccc(OCc3ccc(Cl)cc3Cl)n2)C1` (stereo not drawn): under 5.00; for `O=C([C@H]1CCCN1)N1CCN(c2nccc(NCc3ccc(Cl)cc3Cl)n2)CC1`: 7.22; for `CN1CCCC(C(=O)N2CCN(c3nccc(OCc4ccc(Cl)cc4Cl)n3)CC2)C1` (stereo not drawn): 5.92. On the same count and under the same terms, the same measure for `O=C(Cc1cccnc1)N1CCN(c2nccc(OCc3ccc(Cl)cc3Cl)n2)CC1`: under 5.00; for `O=C(C1CNC1)N1CCN(c2nccc(NCc3ccc(Cl)cc3Cl)n2)CC1`: under 5.00; for `Cn1cnc(CC(=O)N2CCN(c3nccc(OCc4ccc(Cl)cc4Cl)n3)CC2)c1`: under 5.00. Turning to `CN1CCCC(C(=O)NCCNc2nccc(OCc3ccc(Cl)cc3Cl)n2)C1` (stereo not drawn), in assay [1], the pIC50 is under 5.00. As to `O=C([C@H]1CCCCN1)N1CCN(c2nccc(NCc3ccc(Cl)cc3Cl)n2)CC1`, the negative-log IC50 (pIC50) in assay [2] is under 4.00; in assay [1], 7.30; in assay [3], 8.00. This molecule gave an ED50 in assay [4] of 30 mg/kg. `CC(C)[C@@H](CNc1nccc(OCc2ccc(Cl)cc2Cl)n1)NC(=O)C1CCCN(C)C1` (stereo partly drawn): in assay [1], the pIC50 is 5.25.

Molecule `O=C(c1cccnc1)N1CCN(c2nccc(OCc3ccc(Cl)cc3Cl)n2)CC1` gave a pIC50 in assay [1] of under 5.00.
